# Laboratory results taken from US10662203B2, “Pyrido[2,3-b]indole compounds for the treatment and prophylaxis of bacterial infection” (Hoffmann-La Roche Inc., priority 2017, dated 2020).
# Columns and labels:
# A. baumannii (ATCC17978) = assay: 50% growth inhibitory concentration (IC50) determination assay; format: cell-based; settings: Iso-Sensitest broth, 0.098 = detection limit
# How it was run: (§1)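 Compounds were two-fold serially diluted (50 to 0.097 μM final) in Iso-Sensitest broth, with ~5×10^5 CFU/mL bacteria. Plates were incubated at 35±2° C and growth followed by OD600 every 20 min over 16 h to derive IC50.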
# [1] = tested on: K. pneumoniae (ATCC10031); assay: as above; format: cell-based; settings: Klebsiella pneumoniae, Iso-Sensitest broth, 0.098 = detection limit
# How it was run: as §1
# S. aureus (ATCC29213) = assay: as above; format: cell-based; settings: Staphylococcus aureus, Iso-Sensitest broth, 0.098 = detection limit
# How it was run: as §1
# [2] = Lyophilisation solubility assay (LYSA); format: physicochemical; settings: 0.05 M phosphate buffer, HPLC-UV; for solubility thermodynamic: phosphate buffer, pH 6.5, aqueous buffer, thermodynamic from solid
# Protocol: Lyophilisation Solubility Assay (LYSA):
# The solubility of compounds of present invention was assessed by LYSA assay. Samples were prepared in duplicate from 10 mM DMSO stock solutions (20 μL) diluted in 30 μL pure DMSO. After evaporation of DMSO with a centrifugal vacuum evaporator, the residue was dissolved in 0.05 M phosphate buffer (150 μL, pH 6.5), which was stirred for one hour and shook for two hours. After one night, the solution was filtered using a microtiter filter plate. Then the filtrate and its 1/10 dilution were analyzed by HPLC-UV.
# [3] = Acinetobacter baumannii, ATCC17978, A. baumannii ATCC17978
SMILES,IC50 (A. baumannii (ATCC17978); [3]) [µM],IC50 [1] [µM],IC50 (S. aureus (ATCC29213)) [µM],solubility thermodynamic [2] [µg/mL],IC50 (A. baumannii (ATCC17978); A. baumannii ATCC17978) [µM],Lysa ([2]; pH 6.5) [µg/mL]
CNc1cc(F)c(F)c2c1[nH]c1ncc(-c3cnc4c(c3)c(=O)c(C(=O)O)cn4C)c(N3C[C@H](C)[C@@H](N(C)C)C3)c12 [Example 1.160],0.131,< 0.098,< 0.098,43,–,–
CNc1cc(F)c(F)c2c1[nH]c1ncc(-c3cnc4c(c3)c(=O)c(C(=O)O)cn4C)c(N3C[C@H](OC)[C@@H](N(C)C)C3)c12 [Example 1.170],–,< 0.098,< 0.098,–,0.292,119
CNc1cc(F)cc2c1[nH]c1ncc(-c3cnc4c(c3)c(=O)c(C(=O)O)cn4C)c(N3C[C@H](OC)[C@@H](N(C)C)C3)c12 [Example 1.171],0.445,< 0.098,< 0.098,46,–,–
CNc1cc(F)c(F)c2c1[nH]c1ncc(-c3cnc4c(c3)c(=O)c(C(=O)O)cn4C)c(N3C[C@H]4CCC[C@@H](N(C)C)[C@H]4C3)c12 [Example 1.175],0.277,< 0.098,< 0.098,113,–,–
CNc1cc(F)c(F)c2c1[nH]c1ncc(-c3cnc4c(c3)c(=O)c(C(=O)O)cn4C)c(N3CCC(CN(C)C)CC3)c12 [Example 1.183],0.103,< 0.098,< 0.098,96,–,–
CNc1cc(F)cc2c1[nH]c1ncc(-c3cnc4c(c3)c(=O)c(C(=O)O)cn4C)c(N3CC[C@H]4CN(C)CC43)c12 (some centres unmarked) [Example 1.187],0.096,< 0.098,< 0.098,> 730,–,–
CNc1cc(F)c(F)c2c1[nH]c1ncc(-c3cnc4c(c3)c(=O)c(C(=O)O)cn4C)c(N3CCC4(CCCN(C)C4)C3)c12 (centres unmarked) [Example 1.190],0.143,< 0.098,12.2,62,–,–
CNc1cc(F)c(F)c2c1[nH]c1ncc(-c3cnc4c(c3)c(=O)c(C(=O)O)cn4C)c(N3CCC4(CCCN(CCOC)C4)C3)c12 (centres unmarked) [Example 1.195],0.499,< 0.098,< 0.098,29,–,–
CNc1cc(F)c(F)c2c1[nH]c1ncc(-c3cnc4c(c3)c(=O)c(C(=O)O)cn4C)c(N3CCCC(N(C)CCOC)C3)c12 (centres unmarked) [Example 1.197],0.245,< 0.098,< 0.098,407,–,–
CNc1cc(F)c(F)c2c1[nH]c1ncc(-c3cnc4c(c3)c(=O)c(C(=O)O)cn4C)c(N3CCC(N(C)CCOC)C3)c12 (centres unmarked) [Example 1.198],0.215,< 0.098,< 0.098,56,–,–
CNc1cc(F)c(F)c2c1[nH]c1ncc(-c3cnc4c(c3)c(=O)c(C(=O)O)cn4C)c(N3CCC(N(C)CCO)C3)c12 (centres unmarked) [Example 1.200],0.57,< 0.098,0.1,69,–,–
CNc1cc(F)c(F)c2c1[nH]c1ncc(-c3cnc4c(c3)c(=O)c(C(=O)O)cn4C)c(N3CCCC(N(C)CCO)C3)c12 (centres unmarked) [Example 1.201],0.852,< 0.098,0.189,124,–,–
CNc1cc(F)c(F)c2c1[nH]c1ncc(-c3cnc4c(c3)c(=O)c(C(=O)O)cn4C)c(N3CCC(N4CCCC4)CC3)c12 [Example 1.203],0.778,< 0.098,0.208,303,–,–
CNc1cc(F)c(F)c2c1[nH]c1ncc(-c3cnc4c(c3)c(=O)c(C(=O)O)cn4C)c(N3CC[C@H]4CN(CCO)CC43)c12 (some centres unmarked) [Example 1.205],0.143,< 0.098,< 0.098,192,–,–
CNc1cc(F)c(F)c2c1[nH]c1ncc(-c3cnc4c(c3)c(=O)c(C(=O)O)cn4C(C)CO)c(N3CC[C@H]4CN(C)CC43)c12 (some centres unmarked) [Example 1.206],0.277,< 0.098,< 0.098,273,–,–
CNc1cc(F)cc2c1[nH]c1ncc(-c3cnc4c(c3)c(=O)c(C(=O)O)cn4C)c(N3CC4[C@H](CCN4C)C3)c12 (some centres unmarked) [Example 1.209],0.076,< 0.098,< 0.098,63,–,–
CNc1cc(F)cc2c1[nH]c1ncc(-c3cnc4c(c3)c(=O)c(C(=O)O)cn4C)c(N3CC[C@H]4CCN(C)C4C3)c12 (some centres unmarked) [Example 1.211],0.11,< 0.098,< 0.098,205,–,–
CNc1cc(F)c(F)c2c1[nH]c1ncc(-c3cnc4c(c3)c(=O)c(C(=O)O)cn4C)c(N3CC[C@H]4CN(C)C4C3)c12 (some centres unmarked) [Example 1.213],0.102,< 0.098,< 0.098,26,–,–

SMILES,IC50 (A. baumannii (ATCC17978); [3]) [µM],IC50 [1] [µM],IC50 (S. aureus (ATCC29213)) [µM],solubility thermodynamic [2] [µg/mL],IC50 (A. baumannii (ATCC17978); A. baumannii ATCC17978) [µM],Lysa ([2]; pH 6.5) [µg/mL]
CNc1cc(F)c(F)c2c1[nH]c1ncc(-c3cnc4c(c3)c(=O)c(C(=O)O)cn4C)c(N3CCCC(N(C)C)C3)c12 (centres unmarked) [Example 1.215],0.252,0.103,0.114,48,–,–
CNc1cc(F)c(F)c2c1[nH]c1ncc(-c3cnc4c(c3)c(=O)c(C(=O)O)cn4C)c(N3CC4[C@H](CC[C@H]4N(C)C)C3)c12 (some centres unmarked) [Example 1.221],0.081,< 0.098,< 0.098,49,–,–
CNc1cc(F)c(F)c2c1[nH]c1ncc(-c3cnc4c(c3)c(=O)c(C(=O)O)cn4C)c(N3C[C@@H](O)[C@@H](N(C)C)C3)c12 [Example 1.223],0.298,< 0.098,< 0.098,472,–,–
CNc1cc(F)c(F)c2c1[nH]c1ncc(-c3cnc4c(c3)c(=O)c(C(=O)O)cn4NC)c(N3C[C@@H](O)[C@@H](N(C)C)C3)c12 [Example 1.224],0.621,< 0.098,0.183,570,–,–
CNc1cc(F)c(F)c2c1[nH]c1ncc(-c3cnc4c(c3)c(=O)c(C(=O)O)cn4C)c(N3CC4CCCN(C)C4C3)c12 (centres unmarked) [Example 1.232],0.049,< 0.098,< 0.098,23,–,–
CNc1cc(F)c(F)c2c1[nH]c1ncc(-c3cnc4c(c3)c(=O)c(C(=O)O)cn4C)c(N3CCC4(CCN4C)C3)c12 (centres unmarked) [Example 1.237],0.194,< 0.098,< 0.098,145,–,–
CNc1cc(F)c(F)c2c1[nH]c1ncc(-c3cnc4c(c3)c(=O)c(C(=O)O)cn4NC)c(N3CC4[C@@H](C3)OCCN4C)c12 (some centres unmarked) [Example 1.242],0.189,< 0.098,< 0.098,24,–,–
CNc1cc(F)c(F)c2c1[nH]c1ncc(-c3cnc4c(c3)c(=O)c(C(=O)O)cn4C)c(N3CCC4CN(C)CCC43)c12 (centres unmarked) [Example 1.243],0.961,0.403,0.712,151,–,–
CNc1cc(F)c(F)c2c1[nH]c1ncc(-c3cnc4c(c3)c(=O)c(C(=O)O)cn4C)c(N3CC[C@@H]4C3CCN4C)c12 (some centres unmarked) [Example 1.245],0.293,< 0.098,< 0.098,542,–,–
CNc1cc(F)c(F)c2c1[nH]c1ncc(-c3cnc4c(c3)c(=O)c(C(=O)O)cn4C)c(N3CCC4C3CCCN4C)c12 (centres unmarked) [Example 1.246],0.317,< 0.098,0.193,> 612,–,–
CNc1cc(F)c(F)c2c1[nH]c1ncc(-c3cnc4c(c3)c(=O)c(C(=O)O)cn4NC)c(N3CCC4C3CCCN4C)c12 (centres unmarked) [Example 1.247],0.344,< 0.098,0.217,516,–,–
CNc1cc(F)c(F)c2c1[nH]c1ncc(-c3cnc4c(c3)c(=O)c(C(=O)O)cn4C)c(N3CC[C@@H]4C3CN4C)c12 (some centres unmarked) [Example 1.248],0.729,< 0.098,0.199,222,–,–
CNc1cc(F)c(F)c2c1[nH]c1ncc(-c3cnc4c(c3)c(=O)c(C(=O)O)cn4NC)c(N3CC[C@@H]4C3CCN4C)c12 (some centres unmarked) [Example 1.249],0.272,< 0.098,< 0.098,487,–,–
CNc1cc(F)c(F)c2c1[nH]c1ncc(-c3cnc4c(c3)c(=O)c(C(=O)O)cn4C)c(N3CC4[C@@H](C3)CN4C)c12 (some centres unmarked) [Example 1.252],0.361,< 0.098,< 0.098,41,–,–
CNc1cc(F)cc2c1[nH]c1ncc(-c3cnc4c(c3)c(=O)c(C(=O)O)cn4C)c(N3CC[C@H](N(C)C)C3)c12 [Example 1.253],0.092,< 0.098,< 0.098,209,–,–
CNc1cc(F)c(F)c2c1[nH]c1ncc(-c3cnc4c(c3)c(=O)c(C(=O)O)cn4C)c(N3CC[C@@H](CN(C)C)C3)c12 [Example 1.255],0.13,< 0.098,< 0.098,99,–,–
CNc1cc(F)c(F)c2c1[nH]c1ncc(-c3cnc4c(c3)c(=O)c(C(=O)O)cn4C)c(N3CC[C@H](CN(C)C)C3)c12 [Example 1.256],0.219,< 0.098,< 0.098,202,–,–
